Values joined by “and” are separate entries in the source; they are usually repeats but may differ in a detail not shown here. Equal entries are not always repeated. Inconclusive results are not listed.

The text below walks through data of PubChem BioAssay AID270 (DTP/NCI, 2004).

In the test the test system is BDF1 mice, s.c. Lewis lung carcinoma, T/C %. Put plainly: NCI In Vivo Anticancer Drug Screen. Data for tumor model Lewis Lung Carcinoma (subcutaneous) in B6D2F1 (BDF1) mice. Put shortly: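 First, mice carry a transplantable tumor. Next, groups receive either compound or vehicle. Finally, survival or tumor dimensions in the dosed animals are divided by the corresponding control figure.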

Setting [1] is: endpoint: median survival time, dose: 100.0 mg/kg/injection, schedule: Q01DX009 (ip), vehicle: saline with Tween-80, higher = longer survival.
[2] abbreviates: endpoint: median survival time, dose: 200.0 mg/kg/injection, schedule: Q01DX009 (ip), vehicle: saline with Tween-80, higher = longer survival.
[3] abbreviates: endpoint: mean tumor weight, dose: 25.0 mg/kg/injection, schedule: Q01DX011 (ip), vehicle: saline, higher = larger tumour.
Setting [4] is: endpoint: mean tumor weight, dose: 50.0 mg/kg/injection, schedule: Q01DX011 (ip), vehicle: saline, higher = larger tumour.
The mark [5] stands for this setting: endpoint: mean tumor weight, dose: 100.0 mg/kg/injection, schedule: Q01DX011 (ip), vehicle: saline, higher = larger tumour.

For the compound `COc1cc(O)c2c(c1)Cc1cc(C)cc(O)c1C2=O`, the T/C (endpoint: median survival time, dose: 0.1 mg/kg/injection, schedule: Q01DX009 (ip), vehicle: saline with Tween-80, higher = longer survival) is 117 % of control; the T/C (endpoint: median survival time, dose: 0.2 mg/kg/injection, schedule: Q01DX009 (ip), vehicle: saline with Tween-80, higher = longer survival) was 120 % of control and 122 % of control; the T/C (endpoint: median survival time, dose: 0.4 mg/kg/injection, schedule: Q01DX009 (ip), vehicle: saline with Tween-80, higher = longer survival) was 108 % of control; the T/C (endpoint: median survival time, dose: 6.25 mg/kg/injection, schedule: Q01DX009 (ip), vehicle: saline with Tween-80, higher = longer survival) was 110 % of control.

For the compound `COc1ccc(CC2C(=O)NC(C)C(=O)N(C)C3Cc4ccc(cc4)Oc4cc(ccc4O)CC(C(=O)NC(C)C(=O)NC(C)C(=O)N2C)N(C)C3=O)cc1` (configuration not stated), the T/C (endpoint: median survival time, dose: 1.0 mg/kg/injection, schedule: Q01DX009 (ip), vehicle: saline, higher = longer survival) is 103 % of control and the T/C (endpoint: median survival time, dose: 2.0 mg/kg/injection, schedule: Q01DX009 (ip), vehicle: saline, higher = longer survival) is 111 % of control.

For the compound `CCOc1ccccc1C1N(Cc2ccc(OC)cc2)CCCN1Cc1ccc(OC)cc1`, the T/C was 103 % of control (endpoint: mean tumor weight, dose: 74.0 mg/kg/injection, schedule: Q01DX011 (ip), vehicle: other, higher = larger tumour); 93 % of control (endpoint: mean tumor weight, dose: 111.0 mg/kg/injection, schedule: Q01DX011 (ip), vehicle: other, higher = larger tumour); 93 % of control (endpoint: mean tumor weight, dose: 166.0 mg/kg/injection, schedule: Q01DX011 (ip), vehicle: other, higher = larger tumour).

Turning to `CC(=O)NNC(=O)c1ccccc1CO`, the T/C is, setting by setting: (endpoint: median survival time, dose: 25.0 mg/kg/injection, schedule: Q01DX009 (ip), vehicle: saline with Tween-80, higher = longer survival) 95 % of control; (endpoint: median survival time, dose: 50.0 mg/kg/injection, schedule: Q01DX009 (ip), vehicle: saline with Tween-80, higher = longer survival) 95 % of control; under setting [1], 98 % of control; under setting [2], 93 % of control.

With `O=C(O)c1cc(=O)cc(C(=O)O)o1`, the T/C is 66 % of control under setting [3], 76 % of control under setting [4] and 77 % of control under setting [5].

In the case of `CC1CN1P(=O)(N1CC1C)N1CC1C` (configuration not stated), the T/C is, setting by setting: (endpoint: median survival time, dose: 6.25 mg/kg/injection, schedule: Q01DX009 (ip), vehicle: saline, higher = longer survival) 98 % of control; (endpoint: median survival time, dose: 12.5 mg/kg/injection, schedule: Q01DX009 (ip), vehicle: saline, higher = longer survival) 90 % of control; (endpoint: median survival time, dose: 25.0 mg/kg/injection, schedule: Q01DX009 (ip), vehicle: saline, higher = longer survival) 89 % of control.

`CCn1cnc2c(SC)nc(N)nc21`: the T/C is, setting by setting: (endpoint: mean tumor weight, dose: 100.0 mg/kg/injection, schedule: Q01DX011 (ip), vehicle: other, higher = larger tumour) 50 % of control; (endpoint: mean tumor weight, dose: 250.0 mg/kg/injection, schedule: Q01DX011 (ip), vehicle: other, higher = larger tumour) 60 % of control; (endpoint: mean tumor weight, dose: 500.0 mg/kg/injection, schedule: Q01DX011 (ip), vehicle: other, higher = larger tumour) 67 % of control; (endpoint: mean tumor weight, dose: 1000.0 mg/kg/injection, schedule: Q01DX011 (ip), vehicle: other, higher = larger tumour) 42 % of control.

Regarding `CC1CCC2(OC1)OC1C(O)C3C4CCC5CC(OC6OC(CO)C(OC7OC(CO)C(O)C(OC8OCC(O)C(O)C8O)C7OC7OC(CO)C(O)C(OC8OC(CO)C(O)C(O)C8O)C7O)C(O)C6O)C(O)CC5(C)C4CCC3(C)C1C2C` (configuration not stated), the T/C is 47 % of control and 58 % of control (endpoint: mean tumor weight, dose: 6.2 mg/kg/injection, schedule: Q01DX011 (ip), vehicle: carboxymethylcellulose (CMC), higher = larger tumour); 93 % of control and 98 % of control (endpoint: mean tumor weight, dose: 12.5 mg/kg/injection, schedule: Q01DX011 (ip), vehicle: carboxymethylcellulose (CMC), higher = larger tumour); 115 % of control (endpoint: median survival time, dose: 1.25 mg/kg/injection, schedule: Q01DX009 (ip), vehicle: saline, higher = longer survival); 122 % of control (endpoint: median survival time, dose: 2.5 mg/kg/injection, schedule: Q01DX009 (ip), vehicle: saline, higher = longer survival); 111 % of control (endpoint: median survival time, dose: 5.0 mg/kg/injection, schedule: Q01DX009 (ip), vehicle: saline, higher = longer survival).

Take `CN(C)/N=N/c1nc[nH]c1C(N)=O`: the T/C is 76 % of control (endpoint: mean tumor weight, dose: 12.5 mg/kg/injection, schedule: Q01DX011 (ip), vehicle: saline, higher = larger tumour); 108 % of control under setting [3]; 111 % of control (endpoint: mean tumor weight, dose: 48.0 mg/kg/injection, schedule: Q01DX011 (ip), vehicle: carboxymethylcellulose (CMC), higher = larger tumour); 80 % of control under setting [4]; 117 % of control (endpoint: mean tumor weight, dose: 95.0 mg/kg/injection, schedule: Q01DX011 (ip), vehicle: carboxymethylcellulose (CMC), higher = larger tumour); 44 % of control (endpoint: mean tumor weight, dose: 100.0 mg/kg/injection, schedule: Q01DX010 (ip), vehicle: saline, higher = larger tumour). The T/C runs as follows: under setting [5], 42 % of control; (endpoint: mean tumor weight, dose: 143.0 mg/kg/injection, schedule: Q01DX011 (ip), vehicle: carboxymethylcellulose (CMC), higher = larger tumour) 78 % of control; (endpoint: mean tumor weight, dose: 200.0 mg/kg/injection, schedule: Q01DX010 (ip), vehicle: saline, higher = larger tumour) 51 % of control; (endpoint: median survival time, dose: 27.0 mg/kg/injection, schedule: Q01DX015 (ip), vehicle: carboxymethylcellulose (CMC), higher = longer survival) 94 % of control and 122 % of control; (endpoint: median survival time, dose: 37.5 mg/kg/injection, schedule: Q01DX009 (ip), vehicle: Klucel (hydroxypropylcellulose) (HPC), higher = longer survival) 97 % of control and 116 % of control; (endpoint: median survival time, dose: 37.5 mg/kg/injection, schedule: Q01DX009 (ip), vehicle: saline with Tween-80, higher = longer survival) 106 % of control and 118 % of control. In addition, the T/C by setting is: (endpoint: median survival time, dose: 40.0 mg/kg/injection, schedule: Q01DX015 (ip), vehicle: carboxymethylcellulose (CMC), higher = longer survival) 92 % of control; (endpoint: median survival time, dose: 60.0 mg/kg/injection, schedule: Q01DX015 (ip), vehicle: carboxymethylcellulose (CMC), higher = longer survival) 102 % of control; (endpoint: median survival time, dose: 75.0 mg/kg/injection, schedule: Q01DX009 (ip), vehicle: Klucel (hydroxypropylcellulose) (HPC), higher = longer survival) 110 % of control; (endpoint: median survival time, dose: 75.0 mg/kg/injection, schedule: Q01DX009 (ip), vehicle: saline with Tween-80, higher = longer survival) 118 % of control; under setting [1], 118 % of control; (endpoint: median survival time, dose: 150.0 mg/kg/injection, schedule: Q01DX009 (ip), vehicle: Klucel (hydroxypropylcellulose) (HPC), higher = longer survival) 122 % of control. The T/C runs as follows: (endpoint: median survival time, dose: 150.0 mg/kg/injection, schedule: Q01DX009 (ip), vehicle: saline with Tween-80, higher = longer survival) 92 % of control; under setting [2], 113 % of control; (endpoint: median survival time, dose: 300.0 mg/kg/injection, schedule: Q01DX009 (ip), vehicle: Klucel (hydroxypropylcellulose) (HPC), higher = longer survival) 95 % of control; (endpoint: median survival time, dose: 450.0 mg/kg/injection, schedule: Q01DX001 (ip), vehicle: carboxymethylcellulose (CMC), higher = longer survival) 93 % of control; (endpoint: median survival time, dose: 670.0 mg/kg/injection, schedule: Q01DX001 (ip), vehicle: carboxymethylcellulose (CMC), higher = longer survival) 96 % of control; (endpoint: median tumor weight (est.), dose: 23.7 mg/kg/injection, schedule: Q01DX009 (ip), vehicle: carboxymethylcellulose (CMC), higher = larger tumour) 102 % of control. Further, the T/C reads like this: (endpoint: median tumor weight (est.), dose: 24.0 mg/kg/injection, schedule: Q01DX009 (ip), vehicle: carboxymethylcellulose (CMC), higher = larger tumour) 74 % of control and 77 % of control; (endpoint: median tumor weight (est.), dose: 37.5 mg/kg/injection, schedule: Q01DX009 (ip), vehicle: saline with Tween-80, higher = larger tumour) 90 % of control; (endpoint: median tumor weight (est.), dose: 47.0 mg/kg/injection, schedule: Q01DX009 (ip), vehicle: carboxymethylcellulose (CMC), higher = larger tumour) 99 % of control; (endpoint: median tumor weight (est.), dose: 47.5 mg/kg/injection, schedule: Q01DX009 (ip), vehicle: carboxymethylcellulose (CMC), higher = larger tumour) 50 % of control; (endpoint: median tumor weight (est.), dose: 48.0 mg/kg/injection, schedule: Q01DX009 (ip), vehicle: carboxymethylcellulose (CMC), higher = larger tumour) 70 % of control; (endpoint: median tumor weight (est.), dose: 75.0 mg/kg/injection, schedule: Q01DX009 (ip), vehicle: saline with Tween-80, higher = larger tumour) 73 % of control. In addition, the T/C is, setting by setting: (endpoint: median tumor weight (est.), dose: 95.0 mg/kg/injection, schedule: Q01DX009 (ip), vehicle: carboxymethylcellulose (CMC), higher = larger tumour) 79 % of control and 82 % of control and 99 % of control; (endpoint: median tumor weight (est.), dose: 150.0 mg/kg/injection, schedule: Q01DX009 (ip), vehicle: saline with Tween-80, higher = larger tumour) 70 % of control; (endpoint: median tumor weight (est.), dose: 300.0 mg/kg/injection, schedule: Q01DX009 (ip), vehicle: saline with Tween-80, higher = larger tumour) 36 % of control.

In the case of `CCCC(Sc1nc(N)nc2nc[nH]c12)C(=O)O` (configuration not stated), the T/C (endpoint: mean tumor weight, dose: 5.0 mg/kg/injection, schedule: Q01DX011 (ip), vehicle: other, higher = larger tumour) is 115 % of control; the T/C (endpoint: mean tumor weight, dose: 10.0 mg/kg/injection, schedule: Q01DX011 (ip), vehicle: other, higher = larger tumour) is 58 % of control; the T/C (endpoint: mean tumor weight, dose: 20.0 mg/kg/injection, schedule: Q01DX011 (ip), vehicle: other, higher = larger tumour) was 17 % of control; the T/C (endpoint: mean tumor weight, dose: 40.0 mg/kg/injection, schedule: Q01DX011 (ip), vehicle: other, higher = larger tumour) was 49 % of control and 69 % of control; the T/C (endpoint: mean tumor weight, dose: 160.0 mg/kg/injection, schedule: Q01DX011 (ip), vehicle: other, higher = larger tumour) is 64 % of control; the T/C (endpoint: mean tumor weight, dose: 320.0 mg/kg/injection, schedule: Q01DX011 (ip), vehicle: other, higher = larger tumour) was 50 % of control and 69 % of control. Moreover, the T/C (endpoint: mean tumor weight, dose: 640.0 mg/kg/injection, schedule: Q01DX011 (ip), vehicle: other, higher = larger tumour) was 48 % of control.

Turning to `C/C=C(\C)C(=O)N/N=C\c1cc(Cl)cc(Cl)c1O`, the T/C by setting is: (endpoint: median survival time, dose: 12.5 mg/kg/injection, schedule: Q01DX009 (ip), vehicle: olive oil, sesame oil, peanut oil, higher = longer survival) 102 % of control; (endpoint: median survival time, dose: 25.0 mg/kg/injection, schedule: Q01DX009 (ip), vehicle: olive oil, sesame oil, peanut oil, higher = longer survival) 112 % of control; (endpoint: median survival time, dose: 50.0 mg/kg/injection, schedule: Q01DX009 (ip), vehicle: olive oil, sesame oil, peanut oil, higher = longer survival) 90 % of control; (endpoint: median survival time, dose: 200.0 mg/kg/injection, schedule: Q01DX009 (ip), vehicle: olive oil, sesame oil, peanut oil, higher = longer survival) 86 % of control.
